Earlier results, collected in US20070276004A1, “Pharmaceutical Composition Comprising an Immunosuppressant for Use in the Treatment of Skin Diseases” (priority 2003, published 2007).

Tested on: allogeneic kidney transplantation
Conditions: rat model of allogeneic kidney transplantation; oral administration; suppression of systemic immune response

## C=CC[C@@H]1/C=C(\C)C[C@H](C)C[C@H](OC)[C@H]2O[C@@](O)(C(=O)C(=O)N3CCCC[C@H]3C(=O)O[C@H](/C(C)=C/[C@@H]3CC[C@@H](O)[C@H](OC)C3)[C@H](C)[C@@H](O)CC1=O)[C@H](C)C[C@@H]2OC [tacrolimus]
  minimum effective dose (MED): 14 mg/kg
